Patent publication USRE48842E1, “Pyrimido-pyrrolo-oxazine-dione compound inhibitors of the cystic fibrosis transmembrane conductance regulator protein and uses therefor” (The Regents of the University of California, priority 2011, dated 2021)
pIC50: −log10 of the molar value. Values after ≈ are worked out from the molar mass of the structure shown. Read-outs that look alike come from different tables or passages of the source.

Columns and labels:
CFTR = CFTR (Homo sapiens, UniProt P13569); conditions: literature values; read-out: IC50 for CFTR inhibition; cited from earlier work
human wildtype CFTR = human wildtype CFTR (Homo sapiens, UniProt P13569); assay: Short-circuit current analysis of CFTR inhibition in CFTR-expressing FRT cells; format: cell-based; parameters: expressed in transfected cells; host or cells: Fischer rat thyroid (FRT) epithelial cells on Snapwell inserts; conditions: for pIC50: short-circuit current, FRT cells expressing human CFTR, forskolin-stimulated, read-out: IC50 for inhibition of CFTR chloride conductance
Description: Short-Circuit Current—Snapwell inserts containing CFTR-expressing FRT cells were mounted in an Ussing chamber. The hemichambers contained 5 mL of buffer containing 75 mM NaCl and 75 mM Na gluconate (apical) and 150 mM NaCl (basolateral) (pH 7.3), and the basolateral membrane was permeabilized with 250 μg/mL amphotericin B, as described (see, e.g., Sonawane et al., FASEB J 2006, supra). Short-circuit current was recorded continuously using a DVC-1000 voltage clamp (World Precision Instruments) using Ag/AgCl electrodes and 3 M KCl agar bridges.
Current was measured in CFTR-expressing FRT cells in which the basolateral membrane was permeabilized and in the presence of a transepithelial chloride concentration gradient, so that current is a quantitative linear measure of CFTR function. CFTR was activated by forskolin, followed by serial additions of increasing concentrations of test compounds.
CFTR inhibition potency was measured by short-circuit current analysis in FRT epithelial cells expressing human CFTR in presence of a transepithelial chloride gradient and in which the basolateral membrane was permeabilized with amphotericin B. Under these conditions short-circuit current is proportional to CFTR chloride conductance.

Aqueous solubility = format: physicochemical
[1] = In vitro metabolism in hepatic microsomes (LC/MS); format: in vitro ADME, rat; conditions: for compound disappearance (loss) in hepatic microsomes: 30 min, 37° C.
Description: (§1) In Vitro Metabolism in Hepatic Microsomes—A compound of structure (I) was incubated for specified times at 37° C. with rat liver microsomes (e.g., 1 mg protein/ml; Sigma-Aldrich, St. Louis, Mo.) in potassium phosphate buffer (100 mM) containing NADPH (0 or 1 mM). The mixture was then chilled on ice, and 0.5 ml of ice-cold ethyl acetate was added. Samples were centrifuged for 15 min at 3,000 rpm, and the supernatant was evaporated to dryness under nitrogen. The residue was dissolved in 150 μl mobile phase (acetonitrile:water 3:1, containing 0.1% formic acid) for LC/MS analysis. Reverse-phase HPLC separations were carried out using a Waters C18 column (2.1×100 mm, […]) equipped with a solvent delivery system (Waters model 2690, Milford, Mass.). The solvent system consisted of a linear gradient from 5 to 95% acetonitrile run over 16 min (0.2 mL/min flow rate). Mass spectra were acquired on an Alliance HT 2790+ZQ mass spectrometer using negative ion detection.
as §1, with “Liquid Chromatography/Mass Spectrometry—Compounds (each at 5 μM) were” for “In Vitro Metabolism in Hepatic Microsomes—A compound of structure (I) was”, “(1” for “(e.g., 1”, “150” for “150 μl”, “detection, scanning from 150 to 1500 Da. The electrospray ion source parameters were as follows: capillary voltage 3.5 kV (positive ion mode), cone voltage 37 V, source temperature 120° C., desolvation temperature 250° C., cone gas flow 25 L/h, and dessolvation gas flow 350 L/h.” for “detection.”
PPQ-102 is a small-molecule inhibitor of CFTR chloride conductance with efficacy in preventing and reversing cyst formation in an organ culture model of PKD (see, e.g., Tradtrantip et al., J. Med. Chem. 2009, supra; Int'l Patent Appl. Publication No. WO 2011/019737). Preliminary analysis of the metabolic stability and aqueous solubility of PPQ-102, indicated poorer metabolic stability and lower water solubility (˜2 μM in albumin-free saline) than desired for optimal drugability. In vitro metabolic stability was determined by compound incubation with hepatic microsomes at 37° C. for specified times in the absence vs. presence of NADPH, following by LC/MS analysis. Shown in FIG. 6A is PPQ-102 disappearance in hepatic microsomes in the presence of NADPH, with ˜60% disappearance in 30 min.

E13.5 embryonic kidneys [2] = conditions: from Tradtrantip et al., J. Med. Chem. 2009; read-out: IC50 for inhibition of cyst growth; cited from earlier work
E13.5 embryonic kidneys [3] = assay: Embryonic kidney organ culture model of PKD (8-Br-cAMP-induced cyst growth); format: cell-based, mouse
Description: Embryonic Organ Culture Model of PKD—Mouse embryos were obtained at embryonic day 13.5 (E13.5). Metanephroi were dissected and placed on transparent Falcon […] porous cell culture inserts as described (see, e.g., Tradtrantip et al., J. Med. Chem. 2009, supra). To the culture inserts was added DMEM/Ham's F-12 nutrient medium supplemented with 2 mM L-glutamine, 10 mM HEPES, 5 μg/mL insulin, 5 μg/mL transferrin, 2.8 nM selenium, 25 ng/ml prostaglandin E, 32 pg/ml T3, 250 U/ml penicillin, and 250 μg/ml streptomycin. Kidneys were maintained in a 37° C. humidified CO2 incubator for up to 8 days. Culture medium containing 100 μM 8-Br-cAMP, with or without test compound, was replaced (in the lower chamber) every 12 h. Kidneys were photographed using a Nikon inverted microscope (Nikon TE 2000-S) equipped with 2× objective lens, 520 nm bandpass filter, and high-resolution CCD camera. Percentage cyst area was calculated as total cyst area divided by total kidney area.
An established embryonic ex vivo kidney organ culture model of PKD was used to test BPO-27 (racemic mixture of R and S forms) efficacy in reducing cAMP agonist-induced renal cystogenesis (see Example 30). […]

human wildtype CFTR, sequence (P13569 whole entry): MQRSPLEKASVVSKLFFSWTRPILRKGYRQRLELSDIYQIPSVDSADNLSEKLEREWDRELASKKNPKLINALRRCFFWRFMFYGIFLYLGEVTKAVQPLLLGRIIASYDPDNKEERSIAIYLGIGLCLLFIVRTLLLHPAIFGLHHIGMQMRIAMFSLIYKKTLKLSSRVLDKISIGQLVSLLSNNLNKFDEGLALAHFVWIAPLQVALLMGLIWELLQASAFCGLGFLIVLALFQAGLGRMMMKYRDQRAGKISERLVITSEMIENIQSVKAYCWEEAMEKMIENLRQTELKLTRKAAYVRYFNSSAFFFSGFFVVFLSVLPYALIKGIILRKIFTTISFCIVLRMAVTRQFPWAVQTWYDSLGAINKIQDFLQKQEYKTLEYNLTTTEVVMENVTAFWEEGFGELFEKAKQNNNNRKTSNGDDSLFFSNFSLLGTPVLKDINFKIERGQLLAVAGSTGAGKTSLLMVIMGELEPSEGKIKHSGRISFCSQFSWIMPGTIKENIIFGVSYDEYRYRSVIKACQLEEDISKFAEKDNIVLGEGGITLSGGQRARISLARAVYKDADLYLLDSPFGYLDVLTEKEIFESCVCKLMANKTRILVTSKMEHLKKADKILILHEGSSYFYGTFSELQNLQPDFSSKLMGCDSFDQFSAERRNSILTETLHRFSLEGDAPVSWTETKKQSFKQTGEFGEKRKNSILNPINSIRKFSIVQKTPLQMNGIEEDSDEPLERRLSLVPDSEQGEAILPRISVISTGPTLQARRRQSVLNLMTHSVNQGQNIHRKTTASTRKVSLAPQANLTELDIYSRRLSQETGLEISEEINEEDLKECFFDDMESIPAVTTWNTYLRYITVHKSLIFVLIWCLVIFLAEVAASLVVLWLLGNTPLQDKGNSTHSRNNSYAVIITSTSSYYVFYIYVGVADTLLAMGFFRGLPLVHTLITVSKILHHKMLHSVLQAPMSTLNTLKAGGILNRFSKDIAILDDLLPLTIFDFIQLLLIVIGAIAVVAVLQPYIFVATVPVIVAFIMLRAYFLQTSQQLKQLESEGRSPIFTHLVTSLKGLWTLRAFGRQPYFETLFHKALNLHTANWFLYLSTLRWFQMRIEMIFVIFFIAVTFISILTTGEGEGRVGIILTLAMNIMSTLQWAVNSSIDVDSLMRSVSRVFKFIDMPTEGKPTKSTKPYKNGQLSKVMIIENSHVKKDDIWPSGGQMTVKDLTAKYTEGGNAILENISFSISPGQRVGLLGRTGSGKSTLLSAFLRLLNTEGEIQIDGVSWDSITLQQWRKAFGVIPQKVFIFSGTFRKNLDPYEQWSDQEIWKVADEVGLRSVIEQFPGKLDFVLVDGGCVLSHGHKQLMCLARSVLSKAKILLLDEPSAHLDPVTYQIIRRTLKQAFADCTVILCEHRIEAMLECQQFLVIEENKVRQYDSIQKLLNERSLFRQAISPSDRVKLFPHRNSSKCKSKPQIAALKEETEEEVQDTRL
CFTR, sequence (P13569 whole entry, species assumed): as the sequence (P13569 whole entry) above

Cc1ccc(C2Nc3ccccc3-n3c(-c4ccccc4)c4c(=O)n(C)c(=O)n(C)c4c32)o1 (centres unmarked) [PPQ-102, 7,9-Dimethyl-6-(5-methylfuran-2-yl)-11-phenyl-5,6-dihydropyrimido[4′,5′-3,4]pyrrolo[1,2-a]quinoxaline-8,10-(7H,9H)-dione, reference compound]
pIC50 (CFTR): ~7.05
pIC50 (human wildtype CFTR): 7.00
solubility (Aqueous solubility; albumin-free saline, saline or isotonic, read-out: water solubility): ~2 µM (≈ 0.877 µg/mL)
compound disappearance (loss) in hepatic microsomes ([1]; in the presence of NADPH): ~60%
compound metabolized in hepatic microsomes ([1]; 4 h, in the presence of NADPH): > 75%
compound loss in hepatic microsomes ([1]; in the absence of NADPH): No loss
pIC50 (E13.5 embryonic kidneys [2]): < 6.30

Cn1c(=O)c2c(-c3ccccc3)n3c(c2n(C)c1=O)C(c1ccc(Br)o1)Oc1ccc(C(=O)O)cc1-3 (racemic) [BPO-27, 6-(5-Bromofuran-2-yl)-7,9-dimethyl-8,10-dioxo-11-phenyl-7,8,9,10-tetrahydro-6H-benzo[b]pyrimido[4′,5′:3,4]pyrrolo[1,2-d][1,4]oxazine-2-carboxylic acid]
pIC50 (E13.5 embryonic kidneys [3]; Mus musculus, 100 μM 8-Br-cAMP, racemic mixture, read-out: IC50 for inhibition of cyst growth (percentage area occupied by cysts)): ~7.00
cyst growth in 8-Br-cAMP-treated kidney (in words) (E13.5 embryonic kidneys [3]; compound in culture medium, 0.1 or 1 μM): remarkably reduced
IC50 (human wildtype CFTR; Determined by short-circuit current assay, read-out: IC50 (μM)^B): 0.008 µM
pIC50 (human wildtype CFTR): ~8.10
solubility (Aqueous solubility; pH 7.4 aqueous phosphate buffer, read-out: solubility): 17 µM (≈ 9.32 µg/mL)
compound disappearance (loss) in hepatic microsomes ([1]; in the presence of NADPH): < 5%
metabolic stability in hepatic microsomes (in words) ([1]; in the presence of NADPH): excellent stability
